The values that follow come from PMC6573034 (Nature Communications, 2019).

This experiment concerns the target T1, SfMCT R256D (Syntrophobacter fumaroxidans, UniProt A0LNN5, R256D).
T1 construct: expressed in transfected cells; host or cells: E. coli JA202 (MC4100 glcA::cat lldP::kan), plasmid pEXT20-SfMCT-3C-10His
The experiment in a line: [14C]L-lactate in vivo uptake assay, mutant R256D. The following applies: R256D versus WT. The experiment is classed as cell-based. Here is the method: The cultures were grown at 37 °C and 180 r.p.m. in an incubator shaker (Multitron, Infors HT). Protein expression was induced at OD600 ~0.5 by addition of IPTG to a final concentration of 0.25 mM. After 4 h, bacteria were pelleted (5,200 × g, 10 min, room temperature) and resuspended in uptake buffer (20 mM Bis-Tris propane-HCl (pH 6.7), 250 mM KCl) to a bacteria density of OD600 12. […] Furthermore, [3-3 H] propionic acid sodium salt ([^3H]propionate, American Radiolabeled Chemicals, specific activity 30 Ci/mmol), n-[2,3-3 H] butyric acid sodium salt ([^3H]butyrate, American Radiolabeled Chemicals, specific activity 120 Ci/mmol), and [1–14 C] pyruvic acid sodium salt ([^14C]pyruvate, specific activity 0.055 Ci/mmol American Radiolabeled Chemicals) were also used for transport experiments. […] Cpm values of each experiment were normalized with respect to the determined upper plateau value, i.e., the fitted upper plateau value corresponds to 100%. The arithmetic average of three independent experiments was calculated. […] His-tagged transporters were detected using an anti-His5 (Qiagen, catalogue number 34660, primary antibody) at a dilution of 1:3,000 and a goat anti-mouse IgG (H + L) HRP conjugate antibody (Biorad, catalogue number 172-1011, secondary antibody) at a dilution of 1:2,500.

T1 sequence (A0LNN5 whole entry R256D): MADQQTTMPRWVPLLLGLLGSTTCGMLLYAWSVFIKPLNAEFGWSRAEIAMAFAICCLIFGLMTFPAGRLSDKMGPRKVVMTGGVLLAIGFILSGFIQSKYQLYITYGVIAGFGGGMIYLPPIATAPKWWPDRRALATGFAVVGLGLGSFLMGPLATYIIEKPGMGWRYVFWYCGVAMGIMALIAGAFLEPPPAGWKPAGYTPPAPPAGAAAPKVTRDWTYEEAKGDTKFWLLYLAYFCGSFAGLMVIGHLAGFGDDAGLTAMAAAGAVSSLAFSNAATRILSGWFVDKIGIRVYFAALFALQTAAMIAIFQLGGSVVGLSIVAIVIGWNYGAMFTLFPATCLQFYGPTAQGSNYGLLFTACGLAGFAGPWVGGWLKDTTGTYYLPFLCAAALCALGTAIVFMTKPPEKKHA

With `C[C@H](O)C(=O)O` [L-lactate], the “increase of [14C]L-lactate transport” value is on record as ~ 2.5 fold.
